In patent US7592140B2, “2′, 5′-oligoadenylate phosphodiesterase” (priority 2002, dated 2009):

What was measured:
[1] = test system: 2′-PDE stable expression strains #6 and #10; assay: Cell viability of 2′-PDE stable expression strains of PC-3 (Alamar Blue); type: cell-based, human; settings: cultured for 3 days
PC-3 cells = assay: Cell viability of PC-3 cells (Alamar Blue); type: cell-based, human; settings: host PC-3 cells, cultured for 3 days
[2] = test system: 2′-PDE purified by Johnston et al.; settings: value obtained by Johnston et al.; activity with A2′pA defined as 1; cited from earlier work
recombinant human 2′-PDE [3] = biological target: T1, recombinant human 2′-PDE (Homo sapiens, UniProt Q6L8Q7); assay: Substrate specificity of recombinant human 2′-PDE (HPLC); type: biochemical; set-up: His6 (histidine hexamer) (C); made in house; host or cells: COS-1 cells (monkey kidney), transient transfection with pEF6/KUBO#002/11-1; nickel-chelate partial purification; settings: relative to adenylyl(2′-5′)adenosine defined as one; 150 μM substrate, 37° C. for 60 min
T1 sequence (Q6L8Q7 43-609): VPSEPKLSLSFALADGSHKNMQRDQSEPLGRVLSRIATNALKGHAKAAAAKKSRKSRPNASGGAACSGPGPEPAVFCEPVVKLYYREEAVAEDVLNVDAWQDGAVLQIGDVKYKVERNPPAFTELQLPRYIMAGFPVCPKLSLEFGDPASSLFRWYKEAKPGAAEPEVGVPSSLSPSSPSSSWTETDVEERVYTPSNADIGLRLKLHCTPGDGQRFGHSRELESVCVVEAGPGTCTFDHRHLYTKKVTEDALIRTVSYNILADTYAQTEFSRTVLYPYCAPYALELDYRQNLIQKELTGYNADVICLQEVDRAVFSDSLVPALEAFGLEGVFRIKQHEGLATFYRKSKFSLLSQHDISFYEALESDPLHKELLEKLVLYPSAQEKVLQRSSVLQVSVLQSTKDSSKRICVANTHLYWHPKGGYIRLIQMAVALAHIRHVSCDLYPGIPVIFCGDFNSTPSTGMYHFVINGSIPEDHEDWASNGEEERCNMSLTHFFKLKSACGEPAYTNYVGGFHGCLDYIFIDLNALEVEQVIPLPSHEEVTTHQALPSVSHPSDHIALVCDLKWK

[4] = Solubility (physicochemical properties)
recombinant human 2′-PDE [5] = biological target: T1, recombinant human 2′-PDE; assay: Inhibition of recombinant human 2′-PDE activity (HPLC measurement of substrate reduction); type: biochemical; set-up: His6 (histidine hexamer) (C); made in house; nickel-chelate partial purification; settings: substrate 0.75 mM adenylyl(2′-5′)adenosine, 37° C. for 60 min; read-out: 50% inhibition concentration (converted)
Experimental: To 10 μl of the partially purified human 2′-PDE enzyme solution obtained in part 1) of Production Example 1, were added 80 μl of Buffer 7 containing 0.75 mM adenylyl(2′-5′)adenosine as the substrate and 10 μl of a solution of the A-74528 compound dissolved in dimethyl sulphoxide. Then the mixture was incubated at 37° C. for 60 min. and the enzyme was inactivated by addition of 200 μl of methanol. Ten μl of the sample obtained, after insoluble matter was removed using a 0.45 μm filter, was subjected to a reversed phase column (Inertsil ODS-2, 5 μm: diameter 4.6 mm×150 mm: manufactured by GL Science), equilibrated beforehand with Buffer 17 [50 mM ammonium acetate (pH 5.0), 5% (V/V) acetonitrile]. Liquid chromatography was performed at a flow rate of 1 ml/min. at 40° C., and the eluate was monitored at a wavelength of 260 nm. The elution was conducted as an isocratic elution. Using a standard material for the substrate, a conversion formula for obtaining the substrate amount based on the peak area was prepared. Based on the conversion formula, the reduction in the amount of the substrate was calculated from the substrate peak area when the diluted enzyme solution was added, which was regarded as the amount of the enzyme reaction product.

Vaccinia virus WR strain = type: cell-based

interferon-α
cell proliferation suppression activity compared with host PC-3 cells [1]: attenuated | suppression of cell viability (PC-3 cells): suppressed the viability of PC-3 cells in a concentration-dependent manner

Nc1ncnc2c1ncn2[C@@H]1O[C@H](COP(=O)(O)O[C@H]2[C@@H](O)[C@H](n3cnc4c(N)ncnc43)O[C@@H]2COP(=O)(O)O[C@H]2[C@@H](O)[C@H](n3cnc4c(N)ncnc43)O[C@@H]2CO)[C@@H](O)[C@H]1O [adenylyl(3′-5′)adenylyl(3′-5′)adenosine]
relative cleavage efficiency [2]: 163 | relative cleavage efficiency (recombinant human 2′-PDE [3]): 1.1

CC1c2c(O)cc(O)c3c2C2C(CC(O)=C4C(=O)c5c(O)cc(O)cc5C(C3=O)C42Cc2cc(O)cc(=O)o2)C1O (stereo not shown) [A-74528]
solubility [4]: soluble in methanol and dimethyl sulphoxide | IC50 (recombinant human 2′-PDE [5]): 60.7 µM | effect on viral replication-suppression activity of interferon-α (Vaccinia virus WR strain): enhanced the viral replication-suppression activity of interferon-α | viral replication-suppression activity (Vaccinia virus WR strain): exhibited a viral replication-suppression activity in a concentration-dependent manner

B1: interferon-γ (protein, UniProt P01579 24-161, looked up)
Interferon gamma: QDPYVKEAENLKKYFNAGHSDVADNGTLFLGILKNWKEESDRKIMQSQIVSFYFKLFKNFKDDQSIQKSVETIKEDMNVKFFNSNKKKRDDFEKLTNYSVTDLNVQRKAIHELIQVMAELSPAAKTGKRKRSQMLFRG
cell proliferation suppression activity compared with host PC-3 cells [1]: attenuated | suppression of cell viability (PC-3 cells): suppressed the viability of PC-3 cells in a concentration-dependent manner
